Patent US20240059652A1, “AMORPHOUS MELANOCORTIN RECEPTOR AGONIST AND METHOD FOR PREPARING SAME” (LG CHEM, LTD., priority 2020, published 2024)

How the values were obtained:
Format in all cases: physicochemical
[1] = vapour stress experiment (stability of the amorphous compound under solvent vapours, XRD pattern analysed); details: 5-7 days; for Result / XRD: vapour stress
Description: (§1) The following experiments were performed to evaluate the stability of the amorphous compound under various solvent vapours and controlled humidity conditions.
A vapour stress experiment was performed by placing about 25 mg of the amorphous compound of Example 1 into an unsealed vial, placing the vial in a large sealed container containing 1 mL of the selected solvent, and after 5-7 days, analyzing the XRD pattern of the sample.
(§2) The vapour stress and humidity stress experimental methods are methods used as methods for generating stable solvates or hydrates because, when a substance is exposed to vapours, a solid is plasticized, and molecular mobility is […]. However, for the amorphous compound of Example 1, the amorphous compound was maintained under various conditions according to the above experimental methods. Thus, it was confirmed that the amorphous compound was stable under the corresponding conditions.

[2] = humidity stress experiment (stability of the amorphous compound in relative humidity chambers, XRD pattern analysed); details: 5-7 days
Description: as §1
In addition, a humidity stress experiment was performed by placing about 25 mg of the amorphous compound of Example 1 in individual vials, storing the vials in an unsealed state in various relative humidity chambers (23% RH, 59% RH, 7% RH, 98% RH, 40° C./75% RH) for 5-7 days, and analyzing the XRD pattern.
as §2

[3] = as above; details: 75% RH stress, 5-7 days

SMILES: CC(C)C(=O)N([C@H]1C[C@@H](C(=O)N2CCOCC2)N(C(=O)[C@@H]2CN(C(C)(C)C)C[C@H]2c2ccc(Cl)cc2)C1)[C@H]1CC[C@@H](C)CC1 [Example 1, N-((3S,5S)-1-((3S,4R)-1-(tert-butyl)-4-(4-chlorophenyl)pyrrolidine-3-carbonyl)-5-(morpholine-4-carbonyl)pyrrolidin-3-yl)-N-((1s,4R)-4-methylcyclohexyl)isobutyramide]
- Result ([1]; 2-Me-THF): Solid
- XRD ([1]; 2-Me-THF): Amorphous
- Result ([1]; ACS): Solid
- XRD ([1]; ACS): Amorphous
- Result ([1]; Acetone): Solid
- XRD ([1]; Acetone): Amorphous
- Result ([1]; Benzyl alcohol): Solid
- XRD ([1]; Benzyl alcohol): Amorphous
- Result ([1]; Chlorobenzene): Solid
- XRD ([1]; Chlorobenzene): Amorphous
- Result ([1]; Chloroform): Solid
- XRD ([1]; Chloroform): Amorphous
- Result ([1]; DCM): Solid
- XRD ([1]; DCM): Amorphous
- Result ([1]; DME): Solid
- XRD ([1]; DME): Amorphous
- Result ([1]; DMSO): Solid
- XRD ([1]; DMSO): Amorphous
- Result ([1]; Ethanol): Solid
- XRD ([1]; Ethanol): Amorphous
- Result ([1]; Formamide): Solid
- XRD ([1]; Formamide): Amorphous
- Result ([1]; HFIPA): Solid
- XRD ([1]; HFIPA): Amorphous
- Result ([1]; Heptane): Solid
- XRD ([1]; Heptane): Amorphous
- Result ([1]; IPA): Solid
- XRD ([1]; IPA): Amorphous
- Result ([1]; MEK): Solid
- XRD ([1]; MEK): Amorphous
- Result ([1]; MeOH): Solid
- XRD ([1]; MeOH): Amorphous
- Result ([1]; NMP): Solid
- XRD ([1]; NMP): Amorphous
- Result ([1]; Nitromethane): Solid
- XRD ([1]; Nitromethane): Amorphous
- Result ([1]; Pyridine): Solid
- XRD ([1]; Pyridine): Amorphous
- Result ([1]; THE): Solid
- XRD ([1]; THE): Amorphous
- Result ([1]; Water): Solid
- XRD ([1]; Water): Amorphous
- stability of the amorphous compound under vapour stress conditions ([1]; various solvent vapours): stable
- Result ([2]; 23% RH stress): Solid
- XRD ([2]; 23% RH stress): Amorphous
- Result ([2]; 40° C./75% RH stress): Solid
- XRD ([2]; 40° C./75% RH stress): Amorphous
- Result ([2]; 59% RH stress): Solid
- XRD ([2]; 59% RH stress): Amorphous
- Result ([2]; 75% RH stress): Solid
- Result ([2]; 98% RH stress): Solid
- XRD ([2]; 98% RH stress): Amorphous
- stability of the amorphous compound under humidity stress conditions ([2]; controlled humidity conditions): stable
- XRD [3]: Amorphous
